The record followed here is patent US10227347B2, “Purinyl-N-hydroxyl pyrimidine formamide derivative, preparation methods and uses thereof” (Guizhou Bailing Group Pharmaceutical CO., LTD., priority 2015, dated 2019).

As a reminder, the IC50 is the concentration at which inhibition is half-maximal.

Like-named read-outs stand apart in the source and are kept apart here.

One test deals with T1, HDAC1 (Homo sapiens, UniProt Q13547).
T1 construct: purchased BPS Bioscience
Briefly: In vitro HDAC1 enzymatic activity inhibition (Lys-Ac-AMC substrate). The class given is biochemical. The method, then:
Determining the inhibition capability to HDAC activity through the substrate method of fluorophore 4-amino-7-coumarin coupled Ac-peptide (Lys-Ac-AMC). HDAC1 protein is purchased from BPS Bioscience Company; the reaction buffer system is a modified tris(hydroxymethyl)aminomethane (TRIS) buffer (pH7.0). All small molecule compounds are prepared and dissolved by 100% DMSO (dimethyl sulfoxide). HDAC is prepared into the buffer as per certain concentration to be served as the enzyme solution; trypsin and the fluorophore 4-amino-7-coumarin coupled Ac-peptide substrate are prepared into the buffer as per certain concentration to be served as the substrate solution. Adding the compound into the reaction wells of the 384 well plate at the designed concentration, then adding 15 μL HDAC solution into the reaction wells (adding 15 μL blank buffer into the control well 0) for incubation under ambient temperature for 15 min; then adding 10 μL substrate solution to start reaction; during the reaction, the final concentration of HDAC1 protein is 6 nM, trypsin 0.05 μM and Ac-peptide 8 μM.
(§1) Calculating the value of IC50 as per the formula: Y=background data+(top data−background data)/(1+10^((Log IC50−X)*rate of curve))
Where, Y refers to the inhibition ratio (%) and X refers to the compound concentration. […]
Analyzing the result data with the software GraphPad Prism and calculating the value of IC50 as per the formula: Y=background data+(top data−background data)/(1+10^((Log IC50−X)*rate of curve)). Where, Y refers to the inhibition ratio (%) and X refers to the compound concentration.

The target in the next test is T2, PI3Kα (Homo sapiens, UniProt P42336).
T2 construct: purchased Invitrogen PV4788
Briefly: PI3Kα activity inhibition (Kinase-Glo). Type of test: biochemical. The note with it: Table 1, graded; read-out: PI3Kα IC50. The method, then: Detecting the inhibition capability of the compound to PI3Kα and PI3Kδ activities with Kinase-Glo (purchased from Promege Company; Catalog No.: V3771). […] The reaction system also comprises substrates as PIP2 (4, 5-diphosphoinositide, purchased from Life Technologies Company) and ATP (triphosadenine, purchased from Sigma Company). The reaction buffer system comprises 50 mM HEPES (4-hydroxyethylpiperazine ethane sulfonic acid), 3 mM MgCl2, 1 mM EGTA (ethylene glycol bis(2-amino ethylether)quadrol), 100 mM NaCl, 0.03% CHAPS (3-[3-(cholamidopropyl)dimethylamino]-1-propanesulfonic acid), 2 mM DTT (dithiothreitol). The pH value of the reaction buffer is 7.5. […] Mixing the system evenly for incubation under ambient temperature (for 1 h in PI3Kα test and for 2 h in PI3Kδ test). After incubation, adding 10 μL Kinase-Glo which has been preheated to ambient temperature into each reaction well to terminate the reaction; shaking it in dark place for 15 min after it is mixed evenly, then measuring the fluorescence intensity with a microplate reader and analyzing the result data with the software GraphPad Prism.
as §1
Where, Y refers to the inhibition ratio (%) and X refers to the compound concentration.
(In general: In Kinase-Glo more light means more ATP remaining.)

The mark [1] stands for this setting: Table 1, graded, read-out: HDAC1 IC50.
Setting [2] is: read-out: inhibition value IC50 to the activity of HDAC1.

T2 sequence (P42336 whole entry, species assumed): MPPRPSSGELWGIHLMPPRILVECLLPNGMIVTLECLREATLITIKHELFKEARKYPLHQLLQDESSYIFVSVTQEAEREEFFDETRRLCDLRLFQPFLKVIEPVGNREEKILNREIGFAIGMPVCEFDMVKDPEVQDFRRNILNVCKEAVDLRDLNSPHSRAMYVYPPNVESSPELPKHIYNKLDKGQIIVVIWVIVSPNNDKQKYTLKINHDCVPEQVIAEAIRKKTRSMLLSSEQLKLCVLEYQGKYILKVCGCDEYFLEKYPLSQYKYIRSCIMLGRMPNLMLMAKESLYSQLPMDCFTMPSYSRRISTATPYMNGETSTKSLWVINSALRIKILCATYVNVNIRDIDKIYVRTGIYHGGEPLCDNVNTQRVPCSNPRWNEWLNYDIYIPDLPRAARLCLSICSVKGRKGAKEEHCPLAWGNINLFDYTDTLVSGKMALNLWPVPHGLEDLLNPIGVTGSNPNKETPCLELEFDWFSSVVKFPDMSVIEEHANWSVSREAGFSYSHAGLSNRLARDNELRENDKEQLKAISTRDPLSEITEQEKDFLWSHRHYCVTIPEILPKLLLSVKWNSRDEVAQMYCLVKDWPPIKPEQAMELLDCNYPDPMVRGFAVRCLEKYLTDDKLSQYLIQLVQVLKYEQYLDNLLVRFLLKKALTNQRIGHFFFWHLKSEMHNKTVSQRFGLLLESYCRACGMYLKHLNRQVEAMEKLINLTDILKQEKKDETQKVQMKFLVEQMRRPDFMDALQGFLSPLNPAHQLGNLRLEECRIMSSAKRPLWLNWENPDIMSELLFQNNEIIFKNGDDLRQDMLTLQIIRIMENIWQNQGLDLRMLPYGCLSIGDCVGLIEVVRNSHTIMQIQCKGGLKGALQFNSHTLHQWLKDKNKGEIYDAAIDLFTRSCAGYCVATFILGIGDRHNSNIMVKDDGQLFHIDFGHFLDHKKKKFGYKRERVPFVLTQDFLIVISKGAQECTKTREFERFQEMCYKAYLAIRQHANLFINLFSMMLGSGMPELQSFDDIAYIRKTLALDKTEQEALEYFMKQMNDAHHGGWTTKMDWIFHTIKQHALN
T2 sequence (P27986 whole entry partner, species assumed): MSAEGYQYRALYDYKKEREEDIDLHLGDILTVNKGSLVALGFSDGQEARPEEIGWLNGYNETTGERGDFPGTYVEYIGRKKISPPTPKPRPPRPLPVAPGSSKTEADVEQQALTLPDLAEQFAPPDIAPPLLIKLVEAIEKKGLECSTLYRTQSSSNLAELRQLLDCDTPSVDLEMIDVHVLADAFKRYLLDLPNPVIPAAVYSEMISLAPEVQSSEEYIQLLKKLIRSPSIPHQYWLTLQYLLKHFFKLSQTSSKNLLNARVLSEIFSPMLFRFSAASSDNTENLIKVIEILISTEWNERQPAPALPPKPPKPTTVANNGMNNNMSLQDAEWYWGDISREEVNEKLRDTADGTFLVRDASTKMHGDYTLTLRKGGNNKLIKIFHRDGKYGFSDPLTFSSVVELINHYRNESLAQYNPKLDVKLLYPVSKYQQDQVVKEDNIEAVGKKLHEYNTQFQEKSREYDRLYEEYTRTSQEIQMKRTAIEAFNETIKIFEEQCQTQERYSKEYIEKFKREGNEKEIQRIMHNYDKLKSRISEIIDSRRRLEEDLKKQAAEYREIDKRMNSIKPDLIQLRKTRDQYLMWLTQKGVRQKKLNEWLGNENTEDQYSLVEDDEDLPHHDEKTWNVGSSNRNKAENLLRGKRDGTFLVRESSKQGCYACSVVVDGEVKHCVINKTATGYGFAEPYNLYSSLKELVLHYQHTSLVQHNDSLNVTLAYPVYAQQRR
T1 sequence (Q13547 whole entry, species assumed): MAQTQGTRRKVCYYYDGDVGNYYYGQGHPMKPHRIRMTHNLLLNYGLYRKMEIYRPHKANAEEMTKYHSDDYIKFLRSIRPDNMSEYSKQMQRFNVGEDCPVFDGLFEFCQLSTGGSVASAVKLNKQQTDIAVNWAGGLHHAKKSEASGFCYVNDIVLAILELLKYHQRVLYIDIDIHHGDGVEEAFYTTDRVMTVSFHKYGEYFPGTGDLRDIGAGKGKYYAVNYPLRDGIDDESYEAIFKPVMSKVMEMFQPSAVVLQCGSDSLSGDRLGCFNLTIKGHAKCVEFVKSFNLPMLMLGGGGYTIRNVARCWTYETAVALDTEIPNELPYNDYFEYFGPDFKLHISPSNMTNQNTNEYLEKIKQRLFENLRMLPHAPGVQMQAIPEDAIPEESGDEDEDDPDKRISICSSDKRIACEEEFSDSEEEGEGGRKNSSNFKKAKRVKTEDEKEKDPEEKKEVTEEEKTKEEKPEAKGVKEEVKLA

For `CN(Cc1nc2c(N3CCOCC3)nc(-c3cccc(C(N)=O)c3)nc2n1C)c1ncc(C(=O)NO)cn1` [CLJ-64, 2-(((2-(3-carbamoylphenyl)-9-methyl-6-morpholine-9H-purine-8-yl))methyl(methyl)amino)-N-hydroxyl pyrimidine-5-formamide], the IC50 was less than 100 nM at HDAC1 (setting [1]) and more than 10000 nM at PI3Kα.
`CCCn1c(CN(C)c2ncc(C(=O)NO)cn2)nc2c(N3CCOCC3)nc(-c3ccc(N)cc3)nc21` [CLJ-45, N-hydroxy-2-(((2-(4-aminophenyl)-6-morpholino-9-propyl-9H-purine-8-yl)methyl)(methyl)amino)pyrimidine-5-formamide]: the IC50 at HDAC1 (setting [1]) was 1000 to 10000 nM; on PI3Kα, more than 10000 nM.
The corresponding values for `COc1ccc(-c2nc(N3CCNCC3)c3nc(CN(C)c4ncc(C(=O)NO)cn4)n(C)c3n2)cc1` [CLJ-69, N-hydroxy-2-(((2-(4-methoxyphenyl)-9-methyl-6-(piperazine-1-yl)-9H-purine-8-yl)methyl)(methyl)amino)pyrimidine-5-formamide] are less than 100 nM and more than 10000 nM.
The matching figures for `CN(Cc1nc2c(N3CCOCC3)nc(-c3cccc(C(=O)NCCO)c3)nc2n1C)c1ncc(C(=O)NO)cn1` [CLJ-65, 2-(((2-(3-(N-(hydroxyethyl)acylamino)phenyl)-9-methyl-6-morpholine-9H-purine-8-yl))methyl(methyl)amino)-N-hydroxyl pyrimidine-5-formamide]: less than 100 nM and more than 10000 nM.
With `CN(Cc1nc2c(N3CCOCC3)nc(-c3ccc4c(c3)OCCO4)nc2n1C)c1ncc(C(=O)NO)cn1` [CLJ-37, 2-(((2-(benzo[d][1.4]dioxyheterocyclic hexylene-6-yl)-9-methyl-6-morpholine-9H-purine-8-yl))methyl(methyl)amino)-N-hydroxyl pyrimidine-5-formamide], the values for the IC50 at HDAC1 (setting [1]), at HDAC1 (setting [2]) and at PI3Kα were less than 1 nM, less than 1 nM and more than 10000 nM, respectively.
Turning to `CN(Cc1nc2c(N3CCOCC3)nc(-c3cccc(S(=O)(=O)NCO)c3)nc2n1C)c1ncc(C(=O)NO)cn1` [CLJ-59, 2-(((2-(3-(N-(hydroxymethyl)sulfonamide)phenyl)-9-methyl-6-morpholine-9H-purine-8-yl))methyl(methyl)amino)-N-hydroxyl pyrimidine-5-formamide], the 50% inhibitory concentration (IC50) at HDAC1 (setting [1]) is less than 100 nM; at PI3Kα, more than 10000 nM.
The matching figures for `CCc1ccc(-c2nc(N3CCOCC3)c3nc(CN(C)c4ncc(C(=O)NO)cn4)n(C)c3n2)cc1` [CLJ-61, 2-(((2-(4-ethylphenyl)-9-methyl-6-morpholine-9H-purine-8-yl))methyl(methyl)amino)-N-hydroxyl pyrimidine-5-formamide]: less than 100 nM and more than 10000 nM.
The corresponding values for `CN(Cc1nc2c(N3CCOCC3)nc(-c3ccc(O)cc3)nc2n1C)c1ncc(C(=O)NO)cn1` [CLJ-28, 2-(((2-(4-hydroxyphenyl)-9-methyl-6-morpholine-9H-purine-8-yl))methyl(methyl)amino)-N-hydroxyl pyrimidine-5-formamide] are 100 to 1000 nM and more than 10000 nM.
For the compound `CN(Cc1nc2c(N3CCOCC3)nc(-c3ccc(C(C)(C)C)cc3)nc2n1C)c1ncc(C(=O)NO)cn1` [CLJ-63], the IC50 on HDAC1 (setting [1]) was less than 100 nM; at PI3Kα, more than 10000 nM.
The matching figures for `CCCCn1c(CN(C)c2ncc(C(=O)NO)cn2)nc2c(N3CCOCC3)nc(-c3ccc(OC)cc3)nc21` [CLJ-33, N-hydroxy-2-(((2-(4-methoxyphenyl)-6-morpholino-9-butyl-9H-purine-8-yl)methyl)(methyl)amino)pyrimidine-5-formamide]: 100 to 1000 nM and more than 10000 nM.
Take `CCCc1ccc(-c2nc(N3CCOCC3)c3nc(CN(C)c4ncc(C(=O)NO)cn4)n(C)c3n2)cc1` [CLJ-62, 2-(((2-(4-propylphenyl)-9-methyl-6-morpholine-9H-purine-8-yl))methyl(methyl)amino)-N-hydroxyl pyrimidine-5-formamide]: the IC50 on HDAC1 (setting [1]) is less than 100 nM; on PI3Kα, more than 10000 nM.
The corresponding values for `CN(Cc1nc2c(N3CCOCC3)nc(-c3cccc(C(=O)N4CCN(CO)CC4)c3)nc2n1C)c1ncc(C(=O)NO)cn1` [CLJ-66, 2-(((2-(3-(4-(hydroxymethyl)piperazine-1-carbonyl)phenyl)-9-methyl-6-morpholine-9H-purine-8-yl))methyl(methyl)amino)-N-hydroxyl pyrimidine-5-formamide] are less than 100 nM and more than 10000 nM.
The matching figures for `CN(Cc1nc2c(N3CCOCC3)nc(-c3cccc(OCCO)c3)nc2n1C)c1ncc(C(=O)NO)cn1` [CLJ-41, 2-(((2-(3-(2-hydroxylethyoxyl)phenyl)-9-methyl-6-morpholine-9H-purine-8-yl))methyl(methyl)amino)-N-hydroxyl pyrimidine-5-formamide]: 100 to 1000 nM and 100 to 1000 nM.
`CN(Cc1nc2c(N3CCOCC3)nc(-c3cccc(CO)c3)nc2n1C)c1ncc(C(=O)NO)cn1` [CLJ-40, 2-(((2-(3-(hydroxymethyl)phenyl)-9-methyl-6-morpholine-9H-purine-8-yl))methyl(methyl)amino)-N-hydroxyl pyrimidine-5-formamide]: the IC50 is less than 100 nM on HDAC1 (setting [1]) and more than 10000 nM at PI3Kα.
For the compound `CN(Cc1nc2c(N3CCOCC3)nc(-c3ccc(CN4CCOCC4)cc3)nc2n1C)c1ncc(C(=O)NO)cn1` [CLJ-67], the IC50 on HDAC1 (setting [1]) was less than 1 nM; at HDAC1 (setting [2]), less than 1 nM; on PI3Kα it was more than 10000 nM.
For `CN(Cc1nc2c(N3CCOCC3)nc(-c3ccc(S(=O)(=O)NCCCCl)cc3)nc2n1C)c1ncc(C(=O)NO)cn1` [CLJ-58, 2-(((2-(4-(N-(3-chloropropyl)sulfonamide)phenyl)-9-methyl-6-morpholine-9H-purine-8-yl))methyl(methyl)amino)-N-hydroxyl pyrimidine-5-formamide], the 50% inhibitory concentration (IC50) was less than 100 nM at HDAC1 (setting [1]) and more than 10000 nM at PI3Kα.
The matching figures for `COc1ccc(-c2nc(N3CCOCC3)c3nc(CNc4ncc(C(=O)NO)cn4)n(C)c3n2)cc1` [CLJ-34, N-hydroxy-2-(((2-(4-methoxyphenyl)-9-methyl-6-morpholine-9H-purine-8-yl)methyl)amino)pyrimidine-5-formamide]: less than 100 nM and more than 10000 nM.
The corresponding values for `CN(Cc1nc2c(N3CCOCC3)nc(-c3ccc(NC(=O)OC(C)(C)C)cc3)nc2n1C)c1ncc(C(=O)NO)cn1` [CLJ-52] are less than 100 nM and more than 10000 nM.
The matching figures for `CC(C)COc1ccc(-c2nc(N3CCOCC3)c3nc(CN(C)c4ncc(C(=O)NO)cn4)n(C)c3n2)cc1` [CLJ-43, 2-(((2-(4-isobutoxyphenyl)-9-methyl-6-morpholine-9H-purine-8-yl))methyl(methyl)amino)-N-hydroxyl pyrimidine-5-formamide]: less than 100 nM and more than 10000 nM.
For the compound `CN(Cc1nc2c(N3CCOCC3)nc(-c3ccccc3NS(C)(=O)=O)nc2n1C)c1ncc(C(=O)NO)cn1` [CLJ-53], the IC50 at HDAC1 (setting [1]) is less than 100 nM; at PI3Kα it was more than 10000 nM.
Consider `CN(Cc1nc2c(N3CCOCC3)nc(-c3ccc(NS(=O)(=O)CCCCl)cc3)nc2n1C)c1ncc(C(=O)NO)cn1` [CLJ-51], for which the figures for the IC50 on HDAC1 (setting [1]) and on PI3Kα were less than 100 nM and more than 10000 nM, respectively.
In the case of `CN(Cc1nc2c(N3CCOCC3)nc(-c3cccc(NS(=O)(=O)CCCl)c3)nc2n1C)c1ncc(C(=O)NO)cn1` [CLJ-50, 2-(((2-(3-(2-chloroethylsulfonamide)phenyl)-9-methyl-6-morpholine-9H-purine-8-yl))methyl(methyl)amino)-N-hydroxyl pyrimidine-5-formamide], the IC50 on HDAC1 is less than 100 nM; on PI3Kα it was more than 10000 nM.
For the compound `CN(Cc1nc2c(N3CCOCC3)nc(-c3ccco3)nc2n1C)c1ncc(C(=O)NO)cn1` [CLJ-26, 2-(((2-(2-furyl)-9-methyl-6-morpholine-9H-purine-8-yl))methyl(methyl)amino)-N-hydroxyl pyrimidine-5-formamide], the IC50 on HDAC1 (setting [1]) was less than 1 nM; at HDAC1 (setting [2]) it was less than 1 nM; on PI3Kα it was more than 10000 nM.
Consider `CCCCN(Cc1nc2c(N3CCOCC3)nc(-c3ccc(NC)cc3)nc2n1C)c1ncc(C(=O)NO)cn1` [CLJ-47, N-hydroxy-2-(((2-(4-methylaminophenyl)-9-methyl-6-morpholine-9H-purine-8-yl)methyl)(butyl)amino)pyrimidine-5-formamide], for which the 50% inhibitory concentration (IC50) on HDAC1 (setting [1]) is 1000 to 10000 nM; at PI3Kα, more than 10000 nM.
